In the assay the test system is hemolysin of Aeromonas hydrophila (嗜水气单胞菌 溶血素). The assay is described as follows: Quantitative beta-hemolysin assay (5% rabbit red blood cells). Type of assay: cell-based, Aeromonas hydrophila AH08.

The term inhibition denotes the percentage by which the read-out fell short of the control.

Take `O=C(O[C@@H]1Cc2c(O)cc(O)cc2O[C@@H]1c1cc(O)c(O)c(O)c1)c1cc(O)c(O)c(O)c1` [EGCG, 表没食子儿茶素-3-没食子酸酯]: for the setting “Aeromonas hydrophila, Erythrocyte, 256 μg/ml, compared with blank control, read-out: inhibition rate of hemolysin”, the inhibition at 256 µg/mL was determined as 28.2%. The “inhibition of hemolytic activity (in words)” value (high concentration EGCG) is on record as “显著抑制”.

(Values after CN116139126A, “表没食子儿茶素-3-没食子酸酯在制备嗜水气单胞菌的群体感应抑制剂中的应用” (Yueyang Yumeikang Bio Tech Co ltd, priority 2023, dated 2023).)
